Measurements: the CheMixHub viscosity set
Where “and” joins values, the source holds several entries; their conditions need not be identical. Equal values may be shown once. ± gives the uncertainty stated by the source.

Columns and labels:
[1] = xn = mol fraction of the nth substance listed; conditions: 298.15 K, 101 kPa

C1CCC2=[NH+]CCCN2CC1.c1nc[n-]n1
Conditions	viscosity [mPa·s]
303.15 K, 100 kPa	1356 ± 170

C=CC(=O)OC
viscosity
Conditions	293.15 K	298.15 K	303.15 K	308.15 K	313.15 K	318.15 K
100 kPa	0.5038 ± 0.011 mPa·s	0.4602 ± 0.01 mPa·s	0.435 ± 0.044 mPa·s and 0.4197 ± 0.01 mPa·s	0.415 ± 0.042 mPa·s and 0.3856 ± 0.01 mPa·s	0.396 ± 0.04 mPa·s and 0.355 ± 0.01 mPa·s	0.3276 ± 0.01 mPa·s
101 kPa	0.5038 ± 0.021 mPa·s and 0.492 ± 0.07 mPa·s and 0.502 ± 0.011 mPa·s	–	–	–	–	0.3276 ± 0.013 mPa·s and 0.375 ± 0.07 mPa·s and 0.334 ± 0.007 mPa·s

C=CC(=O)OCCCC
viscosity
Conditions	293.15 K	298.15 K	303.15 K	308.15 K	313.15 K	318.15 K
100 kPa	0.8996 ± 0.012 mPa·s	0.8385 ± 0.011 mPa·s	0.782 ± 0.011 mPa·s	0.7306 ± 0.011 mPa·s	0.6833 ± 0.011 mPa·s	0.6387 ± 0.011 mPa·s
101 kPa	0.8996 ± 0.037 mPa·s and 0.868 ± 0.07 mPa·s	–	0.782 ± 0.032 mPa·s and 0.751 ± 0.07 mPa·s and 0.781 ± 0.01 mPa·s	–	0.6833 ± 0.028 mPa·s and 0.658 ± 0.07 mPa·s and 0.684 ± 0.009 mPa·s	0.6387 ± 0.026 mPa·s and 0.618 ± 0.07 mPa·s
101.33 kPa	0.8763 ± 0.012 mPa·s	–	0.7568 ± 0.011 mPa·s	–	0.6609 ± 0.01 mPa·s	–

CC(=O)OC(C)(C)C
101 kPa
Conditions	viscosity [mPa·s]
298.15 K	0.683 ± 0.008
308.15 K	0.596 ± 0.008

CC(C)(C)c1ccccc1
viscosity [mPa·s]
Conditions	293.15 K	298.15 K	303.15 K	308.15 K	313.15 K	318.15 K	323.15 K
100 kPa	–	1.118 ± 0.011	–	0.97 ± 0.01	–	0.853 ± 0.009	–
102 kPa	1.13 ± 0.02	–	0.982 ± 0.021	–	0.854 ± 0.021	–	0.751 ± 0.021

CC(C)CO
Conditions	viscosity
293.15 K, 101 kPa	4.02 mPa·s and 4.009 ± 0.039 mPa·s
293.15 K, 101.33 kPa	4.008 ± 0.04 mPa·s and 2.75 ± 0.046 mPa·s
297 K, 101 kPa	3.569 ± 0.022 mPa·s
298.15 K, 101.3 kPa	3.247 ± 0.044 mPa·s and 3.256 ± 0.04 mPa·s
298.15 K, 101.33 kPa	3.537 ± 0.35 mPa·s and 3.41 mPa·s and 3.41 ± 0.15 mPa·s
303 K, 101 kPa	2.943 ± 0.018 mPa·s
303 K, 101.33 kPa	2.58 ± 0.27 mPa·s
303.15 K, 100 kPa	2.938 ± 0.063 mPa·s and 2.781 ± 0.086 mPa·s
303.15 K, 101.3 kPa	2.745 ± 0.039 mPa·s and 2.743 ± 0.034 mPa·s and 2.842 ± 0.064 mPa·s
303.15 K, 101.33 kPa	2.54 ± 0.26 mPa·s and 2.982 ± 0.03 mPa·s and 2.1 ± 0.036 mPa·s
308 K, 101 kPa	2.261 mPa·s
308.15 K, 100 kPa	2.487 ± 0.053 mPa·s and 2.231 ± 0.069 mPa·s
308.15 K, 101.33 kPa	2.433 ± 0.24 mPa·s
313 K, 101 kPa	2.169 ± 0.014 mPa·s
313.15 K, 100 kPa	2.174 ± 0.046 mPa·s
313.15 K, 101 kPa	2.17 ± 0.024 mPa·s and 2.138 ± 0.024 mPa·s and 1.96 ± 0.43 mPa·s
313.15 K, 101.3 kPa	2.08 ± 0.048 mPa·s
313.15 K, 101.33 kPa	2.186 ± 0.022 mPa·s and 1.65 ± 0.028 mPa·s
318.15 K, 101 kPa	1.751 ± 0.011 mPa·s and 1.834 ± 0.017 mPa·s
318.15 K, 101.33 kPa	1.804 ± 0.18 mPa·s
323 K, 101 kPa	1.632 ± 0.01 mPa·s
323.15 K, 100 kPa	1.637 ± 0.035 mPa·s
323.15 K, 101.33 kPa	1.663 ± 0.017 mPa·s

CC1CCCO1 (stereo not drawn)
298.15 K
Conditions	viscosity [mPa·s]
101 kPa	0.463 ± 0.0055
101.33 kPa	0.4753 ± 0.005

CCCC=O
Conditions	viscosity [mPa·s]
298.1 K, 101 kPa	0.403 ± 0.015

CCCCCC
viscosity
Conditions	293.15 K	298 K	303 K	303.15 K	308.15 K	313 K	313.15 K	318.15 K	323 K	323.15 K
100 kPa	–	–	–	0.2941 ± 0.005 mPa·s	–	–	0.259 ± 0.014 mPa·s and 0.26 ± 0.01 mPa·s and 0.257 ± 0.015 mPa·s	–	–	0.2345 ± 0.0027 mPa·s and 0.231 ± 0.003 mPa·s
101 kPa	0.31 ± 0.006 mPa·s and 0.3119 ± 0.0084 mPa·s	0.31 ± 0.01 mPa·s	0.2673 ± 0.0017 mPa·s	–	0.268 ± 0.02 mPa·s and 0.265 ± 0.007 mPa·s	0.2482 ± 0.0016 mPa·s	–	0.3 ± 0.04 mPa·s and 0.245 ± 0.02 mPa·s	0.2285 ± 0.0015 mPa·s	0.2333 ± 0.0036 mPa·s and 0.235 ± 0.007 mPa·s
101.3 kPa	–	–	–	0.2776 ± 0.0023 mPa·s and 0.286 ± 0.002 mPa·s and 0.294 ± 0.024 mPa·s	–	–	0.274 ± 0.023 mPa·s	–	–	0.251 ± 0.022 mPa·s
101.33 kPa	0.31 ± 0.0062 mPa·s	–	0.273 ± 0.007 mPa·s and 0.2865 ± 0.012 mPa·s	–	–	0.247 ± 0.006 mPa·s	0.2391 ± 0.003 mPa·s and 0.257 ± 0.009 mPa·s and 0.257 ± 0.0051 mPa·s	0.247 ± 0.008 mPa·s	0.226 ± 0.006 mPa·s	0.2524 ± 0.003 mPa·s

CCCCCCCCCCCCCC(=O)OC
Conditions	viscosity [mPa·s]
323.15 K, 100 kPa	2.301 ± 0.094

CCCCCCCCCCCCc1ccccc1
102 kPa
Conditions	viscosity [mPa·s]
293.15 K	5.47 ± 0.02
303.15 K	4.21 ± 0.02
313.15 K	3.33 ± 0.02
323.15 K	2.71 ± 0.02

CCCCCCCC[P+](CC)(CC)CC.O=[N+]([O-])c1cnc[n-]1
100 kPa
Conditions	viscosity [mPa·s]
293.15 K	398 ± 20
298.15 K	286 ± 13
303.15 K	212 ± 9
308.15 K	160 ± 6
313.15 K	124 ± 4
318.15 K	98 ± 3
323.15 K	78 ± 2

CCCCCOC(=O)CCC
101 kPa
Conditions	viscosity [mPa·s]
298.15 K	1.07 ± 0.01
313.15 K	0.86 ± 0.009

CCCCCOC(C)=O
viscosity
Conditions	293.15 K	303.15 K	313.15 K	323.15 K
101 kPa	–	–	0.663 ± 0.007 mPa·s	0.589 ± 0.008 mPa·s
101.3 kPa	–	0.7522 ± 0.0063 mPa·s and 0.7522 ± 0.0049 mPa·s	–	–
101.33 kPa	0.931 ± 0.15 mPa·s	0.805 ± 0.14 mPa·s	0.676 ± 0.13 mPa·s	0.552 ± 0.12 mPa·s

CCC[N+]1(C)CCCCC1.O=S(=O)([N-]S(=O)(=O)C(F)(F)F)C(F)(F)F
101.3 kPa
Conditions	viscosity [mPa·s]
293.15 K	199 ± 40
298.15 K	147 ± 30
303.15 K	112 ± 22
308.15 K	86.6 ± 17
313.15 K	68.5 ± 14
318.15 K	55.1 ± 11
323.15 K	45.1 ± 9

CCOC(=O)CC
Conditions	viscosity [mPa·s]
303.15 K, 101 kPa	0.4833 ± 0.0051

CCn1cc[n+](C)c1.O=S(=O)([O-])C(F)(F)F
101 kPa
Conditions	viscosity
293.15 K	48.6 ± 3 mPa·s
298.15 K	43.8 ± 0.9 mPa·s and 40.44 ± 2.5 mPa·s
303.15 K	36.7 ± 0.8 mPa·s and 34.02 ± 2.1 mPa·s
308.15 K	32.28 ± 0.89 mPa·s
313.15 K	26.6 ± 0.6 mPa·s and 24.89 ± 1.5 mPa·s
318.15 K	21.55 ± 1.3 mPa·s
323.15 K	18.64 ± 1.1 mPa·s

CN(C)CCO
viscosity
Conditions	293.15 K	298.15 K	303.15 K	308.15 K	313.15 K	318.15 K	323.15 K
101 kPa	4.27 ± 1.7 mPa·s	3.78 ± 1.5 mPa·s	3.24 ± 1.3 mPa·s and 2.835 ± 0.02 mPa·s	2.91 ± 1.2 mPa·s and 2.485 ± 0.019 mPa·s	2.53 ± 1 mPa·s and 2.186 ± 0.017 mPa·s	2.27 ± 0.91 mPa·s and 1.938 ± 0.016 mPa·s	2.04 ± 0.82 mPa·s and 1.723 ± 0.015 mPa·s
101.3 kPa	–	–	2.419 ± 0.48 mPa·s	–	2.023 ± 0.4 mPa·s	–	1.734 ± 0.35 mPa·s

Cc1ccccc1O
viscosity
Conditions	293.15 K	298.15 K	308.15 K	313.15 K	318.15 K	323.15 K
101 kPa	9.56 ± 0.14 mPa·s	7.607 ± 0.6 mPa·s and 7.608 ± 0.11 mPa·s	–	4.312 ± 0.13 mPa·s and 4.238 ± 0.032 mPa·s and 4.1 ± 0.043 mPa·s	3.506 ± 0.31 mPa·s and 2.215 ± 0.019 mPa·s	–
101.3 kPa	–	–	–	4.243 ± 0.049 mPa·s	–	3.02 ± 0.036 mPa·s
101.33 kPa	–	7.493 ± 0.21 mPa·s	4.853 ± 0.14 mPa·s	–	3.359 ± 0.095 mPa·s	2.83 ± 0.079 mPa·s

ClCC(Cl)Cl
viscosity [mPa·s]
Conditions	298.15 K	308.15 K	313.15 K
100 kPa	–	0.953 ± 0.03	0.887 ± 0.027
101 kPa	1.061 ± 0.01	–	–

O=C([O-])CC(O)(CC(=O)[O-])C(=O)[O-].[NH3+]CCO.[NH3+]CCO.[NH3+]CCO
101 kPa
Conditions	viscosity [mPa·s]
293.15 K	183.9 ± 15
303.15 K	113.8 ± 9.4
313.15 K	67.2 ± 5.5
323.15 K	37.38 ± 3.1

O=C1OCCO1
viscosity
Conditions	298.15 K	313.15 K	323.15 K
100 kPa	–	1.81 ± 0.18 mPa·s and 1.917 ± 0.041 mPa·s	1.56 ± 0.16 mPa·s
101.3 kPa	2.263 ± 0.018 mPa·s	1.879 ± 0.015 mPa·s	–
101.33 kPa	–	1.93 ± 0.007 mPa·s	–

CCCCCOC(C)=O + Oc1ccccc1
Conditions	viscosity [mPa·s]
[1], x2 = 0.5	1.105 ± 0.011

Cc1ccccc1O + Oc1ccccc1
[1]
Conditions	viscosity [mPa·s]
x2 = 0.1343	7.835 ± 0.11
x2 = 0.1973	7.93 ± 0.11
x2 = 0.3	8.099 ± 0.12
x2 = 0.3881	8.235 ± 0.12
x2 = 0.491	8.404 ± 0.12
x2 = 0.6283	8.565 ± 0.12
x2 = 0.6927	8.645 ± 0.12
x2 = 0.7579	8.731 ± 0.13
x2 = 0.8003	8.757 ± 0.13
x2 = 0.873	8.825 ± 0.13
x2 = 0.901	8.851 ± 0.13
